Experimental data taken from patent US7238813B2, “Chemical compounds” (Smithkline Beecham Corporation, priority 2000, dated 2007).

Tests used:
GST-VEGFR2 = target: T1, GST-VEGFR2 (Homo sapiens, UniProt P35968); experiment: VEGF-R2 enzyme assay (VEGF-E), LANCE method; assay type: biochemical; conditions: 75 μM ATP
T1 construct: GST-VEGFR2, baculovirus expressed recombinant constructs of the intracellular domains of human TIE2 tagged by GST; made in house
Protocol: VEGF-R2 Enzyme Assay (VEGF-E)
The VEGF enzyme assay used the LANCE method (Wallac) and GST-VEGFR2, baculovirus expressed recombinant constructs of the intracellular domains of human […] tagged by GST. […] The reaction was stopped by the addition of EDTA (final concentration 50 mM). Streptavidin linked-APC (allophycocyanin, Molecular Probe) and Europium-labeled anti-phosphorylated tyrosine antibody (Wallac) were then added at the final concentration of 15 nM and 1 nM, respectively. The APC signal was measured using an ARVO multilabel counter (Wallac Berthold, Japan). The percent inhibition of activity was calculated relative to blank control wells. The concentration of test compound that inhibits 50% of activity (IC50) was interpolated using nonlinear regression (Levernberg-Marquardt) and the equation, y=Vmax (1−x/(K+x))+Y2, where “K” was equal to the IC50. The IC50 values were converted to pIC50 values, i.e., −log IC50 in Molar concentration.

[1] = system: Human umbilical cord endothelial cells (HUVEC); experiment: VEGF-driven cellular proliferation assay: BrdU incorporation assay (VEGF-C); assay type: cell-based; parameters: key to VEGF-C: + = pIC50 of 5.0–6.0; ++ = pIC50 of 6.0–7.0; +++ = pIC50 of > 7.0; − = a negative or inconclusive result; conditions: for IC50: Homo sapiens
Protocol: VFGF-driven Cellular Proliferation Assay: BrdU Incorporation Assay (VEGF-C)
Human umbilical cord endothelial cells (HUVEC, Clonetics, CC2519) were passaged in Type I collagen-coated 100-mm petridishes in EGM-MV medium (Clonetics, CC3125) at 37° C. in a humidified 5% CO2, 95% air incubator. (HUVEC passaged more than 6 times in vitro were discarded and not subjected to assaying.) The cells were harvested using trypsin/EDTA, counted using a haemocytometer and plated at 5000 cells/well in a Type I-collagen coated 96-well plate (Becton Dickinson, 354407) in M199 medium (Gibco BRL, 12340-030) containing 5% FBS (Hyclone, A 1115-L) and gentamicin (at 50 μg/ml, Gibco BRL). After incubation overnight at 37° C., the media were replaced with 100 μl of M199 serum-free medium containing compounds at various concentrations with 0.6% DMSO and gentamicin. The compounds were diluted in serum-free M199 medium from 10 mM stock solutions prepared in 100% DMSO. After a 30 min incubation at 37° C., the cells were fed with 100 μl of serum-free M199 medium containing gentamicin, 0.2% culture-grade bovine serum albumin (BSA, Sigma A1993) and 20 ng/ml of VEGF (R&D systems, 293-VE) or 0.6 ng/ml of basic FGF (R&D systems, 233-FB), and cultured at 37° C. for another 24 h. The cells were pulsed with bromodeoxyuridine (BrdU at 10 μM in serum-free M199) at 37° C. for an additional 24 h. The incorporation of BrdU into the proliferating HUVEC were analyzed using BrdU Cell Proliferation ELISA (Roche Molecular Biochemicals, 1647229) according to the manufacturer's protocols. The optical density at 450 nm was measured with a multilabel counter (ARVO SX, Wallac). The percent inhibition of cell growth was calculated relative to blank control wells. The concentration of test compound that inhibits 50% of cell growth (IC50) was interpolated using nonlinear regression (Levernberg-Marquardt) and the equation, y=Vmax (1−x/(K+x))+Y2, where “K” was equal to the IC50. The IC50, values were converted to pIC50 values, i.e., −log IC50 in Molar concentration.

[2] = target: T2, GST-TIE2 (intracellular domains of human TIE2) (Homo sapiens, UniProt Q02763); experiment: TIE-2 enzyme assay (TIE2-E), LANCE method; assay type: biochemical; conditions: 80 uM ATP
T2 construct: made in house
T2 sequence (Q02763 762-1104): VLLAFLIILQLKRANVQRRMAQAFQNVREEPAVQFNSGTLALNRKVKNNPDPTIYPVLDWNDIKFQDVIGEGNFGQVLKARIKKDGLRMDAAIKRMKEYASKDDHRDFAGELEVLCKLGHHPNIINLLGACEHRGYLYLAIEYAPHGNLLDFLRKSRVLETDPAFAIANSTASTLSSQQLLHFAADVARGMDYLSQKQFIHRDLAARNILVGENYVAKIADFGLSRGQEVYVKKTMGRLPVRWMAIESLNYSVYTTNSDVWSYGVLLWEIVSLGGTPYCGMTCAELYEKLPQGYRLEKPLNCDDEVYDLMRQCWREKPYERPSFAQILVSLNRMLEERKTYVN
Protocol: TIE-2Enzyme Assay (TIE2-E)
The TIE-2 enzyme assay used the LANCE method (Wallac) and GST-TIE2, baculovirus expressed recombinant constructs of the intracellular domains of human TIE2 (amino acids 762–1104, GenBank Accession # L06139) tagged by GST). […] This peptide phosphorylation was detected using the following procedure: for enzyme preactivation, GST-TIE2 was incubated for 30 mins at room temperature with 2 mM ATP, 5 mM MgCl2 and 12.5 mM DTT in 22.5 mM HEPES buffer (pH7.4). Preactivated GST-TIE2 was incubated for 30 mins at room temperature in 96 well plates with 1 μM D1-15 peptide, 80 uM ATP, 10 mM MgCl2, 0.1 mg/ml BSA and the test compound (diluted from a 10 mM stock in DMSO, final DMSO concentration was 2.4%) in 1 mM HEPES (pH7.4). The reaction was stopped by the addition of EDTA (final concentration 45 mM). Streptavidin linked-APC (allophycocyanin, Molecular Probe) and Europium-labeled anti-phosphorylated tyrosine antibody (Wallac) were then added at the final concentration of 17 μg/well and 2.1 μg/well, respectively. The APC signal was measured using an ARVO multilabel counter. (Wallac Berthold Japan). The percent inhibition of activity was calculated relative to blank control wells. The concentration of test compound that inhibits 50% of activity (IC50) was interpolated using nonlinear regression (Levernberg-Marquardt) and the equation, y=Vmax (1−x/(K+x))+Y2, where “K” was equal to the IC50. The IC50 values were converted to pIC50 values, i.e., −log IC50 in Molar concentration.

[3] = target: T3, TIE2 intracellular domain/c-fms extracellular domain (TIE2/c-fms) chimeric protein expressing mouse 3T3 cells (Homo sapiens, UniProt Q02763); experiment: TIE-2 autophosphorylation assay (TIE2-C), ELISA; assay type: cell-based; conditions: TIE2/c-fms 3T3 cells, MCSF activation
T3 construct: a TIE2 intracellular domain/c-fms extracellular domain (TIE2/c-fms) chimeric protein; expressed in transfected cells; host or cells: mouse 3T3 cells
T3 sequence (Q02763 770-1124 limits assumed, change not shown): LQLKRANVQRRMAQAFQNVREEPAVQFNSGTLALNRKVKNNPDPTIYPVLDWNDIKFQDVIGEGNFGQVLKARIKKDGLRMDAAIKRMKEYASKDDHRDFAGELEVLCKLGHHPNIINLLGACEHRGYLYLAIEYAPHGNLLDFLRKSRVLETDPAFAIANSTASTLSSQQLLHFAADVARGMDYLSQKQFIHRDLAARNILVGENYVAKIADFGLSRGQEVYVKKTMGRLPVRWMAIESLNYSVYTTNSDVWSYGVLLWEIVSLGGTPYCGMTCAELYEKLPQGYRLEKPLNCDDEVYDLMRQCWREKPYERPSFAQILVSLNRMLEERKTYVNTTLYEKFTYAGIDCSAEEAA
Protocol: TIE-2 Autophosphorylation Assay (TIE2-C)
The TIE-2 autophosphorylation assay used an ELISA method and a TIE2 intracellular domain/c-fms extracellular domain (TIE2/c-fms) chimeric protein expressing mouse 3T3 cells. This assay measured the autophosphorylation level of TIE2 protein expressed in cells. The cells were cultured in high glucose DMEM (Sigma) containing 10% serum at 37° C. in a humidified 10% CO2, 90% air incubator. The test compound (diluted from a 10 mM stock in DMSO, final DMSO concentration was 0.1%) was incubated with TIE2/c-fms expressing cells for 1 hr in serum free DMEM in 96 well plates followed by the activation of TIE2/c-fms receptor using c-fms ligand, MCSF (macrophage colony stimulating factor). The culture media was removed by aspiration and the cells incubated for at least 30 mins on ice with lysis buffer containing 137 mM NaCl, 2 mM EDTA, 10% glycerol, […] sodium ortho vanadate and complete protease inhibitor cocktail (Roche) in 20 mM Tris-HCl (pH8.0). The cell extracts were transferred into Rat anti-c-fms antibody coated 96 well plates and incubated for 12 hrs at 4° C. The extracts were removed by aspiration and the plate was incubated with biotinylated anti-phosphotyrosine antibody, PT66 (Sigma) and then with HRP (Horseradish Peroxidase)-labeled streptavidin (PIERCE). The optical density at 450 nm derived from HRP catalyzed TMB was measured with an ARVO multilabel counter. (Wallac Berthold Japan). The percent inhibition of activity was calculated relative to blank control wells. The concentration of test compound that inhibits 50% of activity (IC50) was interpolated using nonlinear regression (Levernberg-Marquardt) and the equation, y=Vmax (1−x/(K+x))+Y2, where “K” was equal to the IC50. The IC50 values were converted to pIC50 values, i.e., −log IC50 in Molar concentration.

T1 sequence (P35968 786-1356 limits assumed): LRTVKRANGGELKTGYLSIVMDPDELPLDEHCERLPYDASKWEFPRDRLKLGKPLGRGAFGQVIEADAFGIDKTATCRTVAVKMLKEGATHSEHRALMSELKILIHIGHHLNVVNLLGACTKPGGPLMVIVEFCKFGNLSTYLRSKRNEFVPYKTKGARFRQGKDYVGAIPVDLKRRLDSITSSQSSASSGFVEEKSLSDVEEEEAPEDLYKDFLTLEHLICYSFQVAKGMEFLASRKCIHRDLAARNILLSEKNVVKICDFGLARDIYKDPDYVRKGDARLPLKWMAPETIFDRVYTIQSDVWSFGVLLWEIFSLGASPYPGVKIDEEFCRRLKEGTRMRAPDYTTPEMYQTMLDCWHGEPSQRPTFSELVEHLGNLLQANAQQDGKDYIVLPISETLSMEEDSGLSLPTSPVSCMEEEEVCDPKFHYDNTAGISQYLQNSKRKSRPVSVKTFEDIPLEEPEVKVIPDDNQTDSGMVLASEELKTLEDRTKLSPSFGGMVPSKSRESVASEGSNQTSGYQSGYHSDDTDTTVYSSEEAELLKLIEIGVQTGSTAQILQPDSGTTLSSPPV

| IC50 (GST-VEGFR2) [nM] | IC50 [2] [nM] | IC50 [3] [nM] | VEGF-E (GST-VEGFR2) | Compound | IC50 [1] [nM] | VEGF-C [1] |
| --- | --- | --- | --- | --- | --- | --- |
| < 100 |  |  |  | COC(=O)Nc1nc2ccc(Oc3ccc(NC(=O)Nc4cc(C(F)(F)F)ccc4F)cc3)cc2[nH]1 [Example 10, Methyl N-(5-(4-((2-fluoro-5-(trifluoromethyl)phenyl)aminocarbonylamino)phenoxy)-1H-benzimidazol-2-yl)carbamate] | < 100 |  |
|  | < 100 | < 100 |  | COC(=O)Nc1nc2ccc(Oc3ccc(NC(=O)Nc4cc(C(F)(F)F)ccc4Cl)cc3)cc2s1 [Example 76, Methyl N-(6-(4-((2-chloro-5-(trifluoromethyl)phenyl)aminocarbonylamino)phenoxy)benzthiazol-2-yl)carbamate] |  | − |
|  | < 100 | < 100 |  | CS(=O)(=O)n1c(N)nc2ccc(Oc3ccc(NC(=O)Nc4cc(C(F)(F)F)ccc4F)cc3)cc21 [Example 23] | 100 to 1000 |  |
|  | < 100 | < 100 |  | CN1CCN(CC(=O)Nc2nc3ccc(Oc4ccc(NC(=O)Nc5cc(C(F)(F)F)ccc5F)cc4)cc3[nH]2)CC1 [Example 101, N-(5-(4-((2-Fluoro-5-(trifluoromethyl)phenyl)aminocarbonylamino)phenoxy)-1H-benzimidazol-2-yl)(4-methyl-1-piperazino)acetamide] | < 100 |  |
|  | < 100 | 100 to 1000 |  | O=C(O)CCC(=O)Nc1nc2cc(Oc3ccc(NC(=O)Nc4cc(C(F)(F)F)ccc4F)cc3)ccc2[nH]1 [Example 32, 3-(N-(5-(4-((2-Fluoro-5-(trifluoromethyl)phenyl)aminocarbonylamino)phenoxy)-1H-benzimidazol-2-yl)carbamoyl)propionic acid] | 1000 to 10000 |  |
|  |  |  |  | CC(=O)Nc1nc2cc(Oc3ccc(NC(=O)Nc4cc(C(F)(F)F)ccc4F)cc3)ccc2[nH]1 [Example 25, N-(5-(4-((2-Fluoro-5-(trifluoromethyl)phenyl)aminocarbonylamino)phenoxy)-1H-benzimidazol-2-yl)acetamide] | < 100 |  |
| < 100 | 100 to 1000 |  |  | COC(=O)Nc1nc2ccc(Sc3ccc(NC(=O)Nc4cc(C(F)(F)F)cc(C(F)(F)F)c4)cc3)cc2[nH]1 [Example 3, Methyl N-(5-(4-((3,5-di(trifluoromethyl)phenyl)aminocarbonylamino)phenylthio)-1H-benzimidazol-2-yl)carbamate] |  | − |
|  |  |  |  | COC(=O)Nc1nc2ccc(Sc3ccc(NC(=O)Nc4cc(C(F)(F)F)ccc4F)cc3)cc2[nH]1 [Example 9, Methyl N-(5-(4-((2-fluoro-5-(trifluoromethyl)phenyl)aminocarbonylamino)phenylthio)-1H-benzimidazol-2-yl)carbamate] |  | − |
|  |  |  |  | O=C(Nc1ccc(Oc2ccc3[nH]c(NC(=O)c4ccco4)nc3c2)cc1)Nc1cc(C(F)(F)F)ccc1F [Example 27, N-(5-(4-((2-Fluoro-5-(trifluoromethyl)phenyl)aminocarbonylamino)phenoxy)-1H-benzimidazol-2-yl)(2-fury)formamide] | 100 to 1000 |  |
|  |  |  |  | COC(=O)Nc1nc2c(Br)cc(Oc3ccc(NC(=O)Nc4cc(C(F)(F)F)ccc4F)cc3)cc2s1.Cl [Example 65] |  | − |
|  | < 100 | < 100 |  | COC(=O)Nc1nc2cc(Oc3ccc(NC(=O)Nc4cccc(C(C)(C)C)c4)cc3)ccc2[nH]1 [Example 21, Methyl N-(5-(4-((3-t-butylphenyl)aminocarbonylamino)phenoxy)-1H-benzimidazol-2-yl)carbamate] |  | − |
| < 100 | < 100 |  |  | COC(=O)Nc1nc2ccc(Sc3ccc(NC(=O)Nc4cc([N+](=O)[O-])ccc4F)cc3)cc2[nH]1 [Example 8, Methyl N-(5-(4-((2-fluoro-5-nitrophenyl)aminocarbonylamino)phenylthio)-1H-benzimidazol-2-yl)carbamate] |  | − |
| 100 to 1000 |  |  |  | COC(=O)Nc1nc2cc(Oc3ccc(NC(=S)Nc4cccc(OC)c4)cc3)ccc2[nH]1 [Example 185, Methyl N-(5-(4-((3-methoxyphenyl)aminothiocarbonylamino)phenoxy)-1H-benzimidazol-2-yl)carbamate] | 1000 to 10000 |  |
| 1000 to 10000 | < 100 |  |  | COC(=O)Nc1nc2ccc(Sc3ccc(NC(=O)Nc4cc([N+](=O)[O-])ccc4C)cc3)cc2[nH]1 [Example 6, Methyl N-(5-(4-((2-methyl-5-nitrophenyl)aminocarbonylamino)phenylthio)-1H-benzimidazol-2-yl)carbamate] |  | − |
|  | < 100 |  | − | CCc1cccc(NC(=O)Nc2ccc(Sc3ccc4nc(NC(=O)OC)[nH]c4c3)cc2)c1 [Example 7, Methyl N-(5-(4-((3-ethylphenyl)aminocarbonylamino)phenylthio)-1H-benzimidazol-2-yl)carbamate] |  | − |
